The nature of the data set: Olopatadine-PDE4 Inhibitor Solubility Study. The following applies: for effect on the aqueous solubility of olopatadine: 0.1-1% PDE4 inhibitor, FIGS. 1 and 2; for ratio of solubility enhancement: molecules of Compound per olopatadine molecule, straight line fit. Format: physicochemical. As for the experimental part:
The following experiments were conducted to determine the effect of compounds of Formula I on the aqueous solubility of olopatadine.
Formulations with the compositions shown in Table 1 were prepared for olopatadine solubility testing as follows: ten milliliter samples of the formulations containing either 0%, 0.1%, 0.3%, or 1% of either Compound 1 (4-(3,5-Dichloropyridin-4-ylamino)-7-methoxy-8-(6-(4-methylpiperazin-1-yl)hexyloxy)quinolin-2(1H)-one) or Compound 2 (4-(3,5-Dichloropyridin-4-ylamino)-7-methoxy-8-(6-morpholinohexyloxy)quinolin-2(1H)-one) with at least 1% Olopatadine Hydrochloride as shown in Table 2 were prepared and adjusted to the target pH. […] The samples were mixed on a rocker and the pH was readjusted to the target pH after one and six days of mixing. On day seven, the samples were filtered through an Acrodisc 25 mm GXF/GHP 0.2 micron filter. The first three milliliters of filtrate were collected for final pH measurement and the next 3 milliliters of filtrate were filled into two 1.5 mL HPLC vials for the olopatadine assay (as free base) as shown below. Compound 1 was not assayed in samples A through H as an assay method was not available. Duplicate Compound 1/Olopatadine samples for the olopatadine assay were injected neat into the HPLC. Compound 2 and olopatadine were assayed in samples I, J, and K. Single Compound 2/Olopatadine samples were diluted 1/10 with 50/50 Acetonitrile/Water and injected into the UPLC.
The final pH of the filtered samples was measured with an Orion 525A+pH meter using a Ross Semimicro combination pH electrode and automatic temperature probe.
The Compound 1 and Olopatadine HPLC assay was conducted using the following conditions: • Instrument: Waters 2695 Separation Module and Waters 2487 • Variable Wavelength Ultraviolet-Visible Detector with Empower Software • Column: Phenomenex Ultracarb C8, 5 micron, 150×4.6 mm • Mobile Phase: • Solvent A=Acetonitrile • Solvent B=100 milliMolar Potassium Phosphate with 0.1% Triethylamine adjusted to pH 3.0 with NaOH/HC1 • Flowrate=1 milliliter/Minute • Gradient:
• Detection: 299 nm Ultraviolet Absorbance • Injection Volume: 20 microliters • Olopatadine Retention Time: About 6.2 minutes
The Compound 2 and Olopatadine UPLC assay was conducted using the following conditions: • Instrument: Waters ACQUITY UPLC System with TUV Detector and Empower Software • Column: Acquity UPLC BEH Shield C18, 1.7 micron, 100×2.1 mm • Mobile Phase: • Solvent A=0.1% Phosphoric Acid adjusted to pH 3.0 with NaOH/HCl • Solvent B=Acetonitrile • Flowrate=0.3 milliliter/Minute • Gradient:
• Detection: 285 nm Ultraviolet Absorbance • Injection Volume: 3 microliters • AL-53817 Retention Time: About 4.1 minutes • Olopatadine Retention Time: About 4.5 minutes
The target pH of samples E through K was 5.2 and the pH readings of the suspensions were close to this value prior to filtration. However, after filtration the solution pH was generally about 0.2 pH units higher than the suspension pH. This pH shift is commonly observed when measuring the pH of a suspension versus a solution. Duplicate samples of A through H were assayed and the duplicate values were averaged.
The milliMolar (mM) concentrations were calculated by dividing the % w/v concentrations by the molecular weight and multiplying by 10000.

Each structure is given as a SMILES string.

`COc1ccc2c(Nc3c(Cl)cncc3Cl)cc(=O)[nH]c2c1OCCCCCCN1CCN(C)CC1` [Compound 1, 4-(3,5-Dichloropyridin-4-ylamino)-7-methoxy-8-(6-(4-methylpiperazin-1-yl)hexyloxy)quinolin-2(1H)-one]: the “effect on the aqueous solubility of olopatadine” value was “increased the aqueous solubility of olopatadine in a linear concentration dependent manner” and the “ratio of solubility enhancement” value is reported as “about two molecules of the Compounds to one olopatadine molecule”.
Take `COc1ccc2c(Nc3c(Cl)cncc3Cl)cc(=O)[nH]c2c1OCCCCCCN1CCOCC1` [Compound 2, 4-(3,5-Dichloropyridin-4-ylamino)-7-methoxy-8-(6-morpholinohexyloxy)quinolin-2(1H)-one]: the “effect on the aqueous solubility of olopatadine” value is “increased the aqueous solubility of olopatadine in a linear concentration dependent manner” and the “ratio of solubility enhancement” value is “about two molecules of the Compounds to one olopatadine molecule”. Also, for the setting “pH 7.4”, the “solubility of the PDE4 inhibitor in the formulation” value is recorded as “not sufficiently soluble”.
